The test system of assay [1] is BLM-complemented BS cells. The assay can be described thus: Sister chromatid exchange assay in BLM-complemented BS cells. The format is cell-based, human. The following applies: BLM-complemented BS cells (BS-GFP-BLM), 25 mM dU or T in culture medium, 2 x 48 h. As for the experimental part: HeLa cells were used, as previously described (Dutertre S et al., Oncogene 19, 2731-8, 2000). HEK293 cells were cultured as HeLa cells. HeLaV cells and HeLashBLM cells, HEK293V and HEK293shBLM were obtained by transfecting HeLa and HEK cells with an empty pSM2 vector or a pSM2 vector encoding a short hairpin RNA sequence directed against BLM (Open Biosystems, clone V2HS-89234), respectively, using JetPEI reagent (Ozyme) according to the manufacturer's instructions. After 48 hours, selection with 1 to 5 µg/ ml puromycin (Invivogen) was applied for HeLa cells and with 7 to12 µg/ml puromycin for HEK cells. Individual colonies were isolated and maintained in growth medium containing 0.5 µg/ ml puromycin for Hela cells or 10µg/ml puromycin for HEK cells. For siRNAs transient transfection assays, 3-4 x 10^5 cells were seeded in 3 ml of medium in each well of a six-well plate. […]
After treatment, cells were transferred to slides and cultured in the presence of 10 µM 5-bromodeoxyuridine (Sigma) at 37°C, under an atmosphere containing 5% CO2. […] Metaphases were captured with a SONY DXC 930 P camera and SCEs or chromosomal aberrations were analyzed.

The subject of assay [2] is BS cells. Nature of the assay: Sister chromatid exchange assay in BS cells cultured with deoxynucleosides. In kind it is cell-based, human. The following applies: BS cells (BS-GFP), 25 µM dU or T in culture medium, 2 x 48 h. As for the experimental part:
The BS SV40-transformed fibroblast cell line GM08505B was cultured as previously described (Dutertre S et al., Oncogene 19, 2731-8, 2000). BS-GFP-BLM cells were obtained by transfecting BS GM08505B cells with an empty EGFP-C1 vector (Clontech, Mountain View, CA), or a EGFP-C1 vector containing the full length BLM cDNA (Eladad et al., Hum Mol Genet 14, 1351-65, 2005), respectively, using JetPEI reagent (Ozyme). After 48 hr, selection with 800 to 1600 µg/ml of G418 (Invitrogen) was applied. Individual colonies were isolated and maintained in DMEM supplemented with 800 µg/ml G418.
All cell lines were cultured in DMEM with 10% fetal calf serum (PAN laboratories) either not dialyzed (Lot P282710) or dialyzed (Lot P5940309) for nucleoside complementation experiments and dNTP assays. […]
After treatment, cells were transferred to slides and cultured in the presence of 10 µM 5-bromodeoxyuridine (Sigma) at 37°C, under an atmosphere containing 5% CO2. After 40 hours, Colchicine (Sigma) was added to a final concentration of 0.1 µg/ ml for 1 hour. Cells were incubated in hypotonic solution (1:6 (vol/vol) FCS-distilled water) and fixed with 3:1 (vol/vol) methanol-acetic acid. […] Metaphases were captured with a SONY DXC 930 P camera and SCEs or chromosomal aberrations were analyzed.

For `Cc1cn([C@H]2C[C@H](O)[C@@H](CO)O2)c(=O)[nH]c1=O` [T, thymidine], the SCEs frequency result in assay [1] is “did not affect”; in assay [2], “significant decrease”.
For `O=c1ccn([C@H]2C[C@H](O)[C@@H](CO)O2)c(=O)[nH]1` [dU, deoxyuridine], in that order: “did not affect” and “significant decrease”.

(Values after patent publication EP2348131A1, “Low levels of cytidine deaminase as a marker for genetic predisposition to develop cancer” (Institut Curie, priority 2010, dated 2011).)
